Assay results from US20130165475A1, “DEUTERIUM-ENRICHED HETEROCYCLIC COMPOUNDS AS KINASE INHIBITORS” (ASCEPION PHARMACEUTICALS, INC., priority 2010, published 2013).

Legend:
[1] = tested on: MDA-MB-231 human breast cancer cells; assay: In vivo anti-tumor efficacy, MDA-MB-231 xenograft; details: MDA-MB-231 s.c. in nu/nu Balb/c athymic mice, 50 mg/kg once per day oral gavage
Experimental: (§1) Female (nu/nu) Balb/c athymic mice at 4-6 weeks of age were injected subcutaneously (s.c.) with MDA-MB-231 human breast cancer cells, A549 human non-small cell lung cancer cells, BEL7401 human liver cancer cells, HT-29 human colon cancer cells, or MKN-45 human gastric cancer cells (ATCC, 5×10^6 cells suspended in 100 μl DMEM medium). Treatment was initiated after the tumor mass grown from subcutaneous implanted tumor cells reaches a median volume of 200-400 mm^3. Mice were randomized into groups with three in each group such that the median tumor volume is nearly equal among all groups. […] Tumor volumes were assessed at least twice weekly by caliper measurement from the start of treatment. Tumor volume was calculated using the formula ½×L×W^2 (L: length of tumor's long axis, W: length of tumor's short axis). […] The efficacy of compounds in reducing tumor growth was assessed by the index Tumor Growth Inhibition (TGI). TGI for a given treatment period was calculated using the group mean tumor volumes according to the formula: TGI=100×(Vvehicle—group−VTreatment—group)÷VVehicle—group wherein VVehicle—group representing the mean tumor volume for the group treated with vehicle and VTreatment—group representing the mean tumor volume of the group treated with a compound.

[2] = tested on: A549 human non-small cell lung cancer cells; assay: In vivo anti-tumor efficacy, A549 xenograft; details: A549 s.c. in nu/nu Balb/c athymic mice, 50 mg/kg once per day oral gavage
Experimental: as §1

[3] = tested on: MKN-45 human gastric cancer cells; assay: In vivo anti-tumor efficacy, MKN-45 xenograft; details: MKN-45 s.c. in nu/nu Balb/c athymic mice, 50 mg/kg once per day oral gavage
Experimental: as §1

[4] = tested on: BEL7404; assay: In vivo anti-tumor efficacy, BEL7404 xenograft; set-up: species or system human; details: Liver cancer, BEL7404 s.c. in nu/nu Balb/c athymic mice, 50 mg/kg once per day oral gavage

Measured: Tumor Growth Inhibition (TGI)

Cl.[2H]C([2H])(c1ccnc(N)c1)n1ccc2c(NC(=O)Nc3cc(Cl)ccc3OC)cccc21 [Example 2, 1-[1-[(2-amino-4-pyridyl)-dideuteriomethyl]indol-4-yl]-3-(5-chloro-2-methoxyphenyl)urea hydrochloride]
A (the TGI is greater or equal to 50%): all assays above
